# Experimental data as given in patent US20070092474A1, “Carnitine salt, preliposome which contains it and dermocosmetic formula for topical use based upon said carnitine salt” (priority 2003, published 2007).
# Several values for one entry are separate records, joined by “and”; a condition that tells them apart may be missing. Identical values can stand only once.
# Tested on: skin blemishes caused by cellulite and localised adiposity
# Assay: Thigh circumference measured with a measuring tape, dermatological test of the cosmetic gel
# Format: in vivo, female volunteers
# Parameters: RIGHT THIGH CIRCUMFERENCE 1/3 T0 / RIGHT THIGH CIRCUMFERENCE 3/3 T15 / RIGHT THIGH CIRCUMFERENCE 3/3 T30 / RIGHT THIGH CIRCUMFERENCE 3/3 T60 / RIGHT THIGH CIRCUMFERENCE 1/3 T15 / RIGHT THIGH CIRCUMFERENCE 1/3 T60 / RIGHT THIGH CIRCUMFERENCE 2/3 T0 / RIGHT THIGH CIRCUMFERENCE 2/3 T15 / RIGHT THIGH CIRCUMFERENCE 2/3 T30 / RIGHT THIGH CIRCUMFERENCE 2/3 T60 / RIGHT THIGH CIRCUMFERENCE 3/3 T0 / LEFT THIGH CIRCUMFERENCE 3/3 T60 / LEFT THIGH CIRCUMFERENCE 1/3 T15 / LEFT THIGH CIRCUMFERENCE 1/3 T30 / LEFT THIGH CIRCUMFERENCE 1/3 T60 / LEFT THIGH CIRCUMFERENCE 2/3 T0 / LEFT THIGH CIRCUMFERENCE 2/3 T15 / LEFT THIGH CIRCUMFERENCE 3/3 T0: unit not given beside the values
# Method: A dermatological test was carried out on 25 female volunteers between 18 and 65 years of age, with the backing of the Department of Physiological and Pharmacological Sciences of the university of Pavia. The investigation aimed to check the modification of three anatomical-physiological parameters, qualifying the unaesthetic-functional aspect connected to the manifestation of so-called cellulite and subcutaneous hypertriglyceridaemia: measurement of the skin folds, measurement of the circumference of the thighs, thermographic skin measurement.
# The test stretched out over 60 days with the continual daily application of the aforementioned preparation of cosmetic gel. The measurements were carried out after 15, 30 and 60 days. The detail of the test protocol and of the results obtained is shown hereafter.
# 25 female volunteers aged between 18 and 65, with the presence of skin blemishes caused by cellulite and localised adiposity, were selected according to the following criteria: good general state of health, absence of skin pathologies, not being under medication, commitment not to vary the normal daily routine, no medical history of atopy.
# The samples were tested by uniformly applying them on “Glute SX Glute DJ (Femoris Posto SX Femoris Posto DX Femoris Ant. SX Femoris Ant. DX” every day at least once per day for the entire duration of the test.
# At the time of inclusion in the study and during the subsequent checks after 15 days (T15), after 30 days (T30) and after 60 days (T60) of treatment the following instrumental measurements were taken: • plicometry (through a plicometer) • thigh circumference (through a measuring tape broken into millimetres) • contact thermography (through liquid crystal thermographic plates).
# [1] = MEDIA of 25 volunteers, T0 at inclusion, before treatment
# [2] = MEDIA of 25 volunteers, after 15 days of daily gel application
# [3] = MEDIA of 25 volunteers, after 30 days of daily gel application
# [4] = MEDIA of 25 volunteers, after 60 days of daily gel application
# [5] = individual volunteer, T0 at inclusion, before treatment
# [6] = individual volunteer, after 15 days of daily gel application
# [7] = individual volunteer, after 30 days of daily gel application
# [8] = individual volunteer, after 60 days of daily gel application
substance,measurement,setting,value
carnitine hydroxycitrate [carnitine hydroxy citrate],"LEFT THIGH CIRCUMFERENCE 1/3 T0, MEDIA",[1],53.1
same,"LEFT THIGH CIRCUMFERENCE 2/3 T0, MEDIA",[1],50.2
same,"LEFT THIGH CIRCUMFERENCE 3/3 T0, MEDIA",[1],40.3
same,"RIGHT THIGH CIRCUMFERENCE 1/3 T0, MEDIA",[1],53.1
same,"RIGHT THIGH CIRCUMFERENCE 2/3 T0, MEDIA",[1],50.3
same,"RIGHT THIGH CIRCUMFERENCE 3/3 T0, MEDIA",[1],40.4
same,"LEFT THIGH CIRCUMFERENCE 1/3 T15, MEDIA",[2],52.7
same,"LEFT THIGH CIRCUMFERENCE 2/3 T15, MEDIA",[2],49.7
same,"LEFT THIGH CIRCUMFERENCE 3/3 T15, MEDIA",[2],39.8
same,"RIGHT THIGH CIRCUMFERENCE 1/3 T15, MEDIA",[2],53.3
same,"RIGHT THIGH CIRCUMFERENCE 2/3 T15, MEDIA",[2],49.2
same,"RIGHT THIGH CIRCUMFERENCE 3/3 T15, MEDIA",[2],39.5
same,"LEFT THIGH CIRCUMFERENCE 1/3 T30, MEDIA",[3],51.6
same,"LEFT THIGH CIRCUMFERENCE 2/3 T30, MEDIA",[3],48.8
same,"LEFT THIGH CIRCUMFERENCE 3/3 T30, MEDIA",[3],38.7
same,"RIGHT THIGH CIRCUMFERENCE 1/3 T30, MEDIA",[3],51.8
same,"RIGHT THIGH CIRCUMFERENCE 2/3 T30, MEDIA",[3],48.8
same,"RIGHT THIGH CIRCUMFERENCE 3/3 T30, MEDIA",[3],38.8
same,"LEFT THIGH CIRCUMFERENCE 1/3 T60, MEDIA",[4],50.7
same,"LEFT THIGH CIRCUMFERENCE 2/3 T60, MEDIA",[4],47.9
same,"LEFT THIGH CIRCUMFERENCE 3/3 T60, MEDIA",[4],38.1
same,"RIGHT THIGH CIRCUMFERENCE 1/3 T60, MEDIA",[4],50.7
same,"RIGHT THIGH CIRCUMFERENCE 2/3 T60, MEDIA",[4],47.7
same,"RIGHT THIGH CIRCUMFERENCE 3/3 T60, MEDIA",[4],38.0
same,LEFT THIGH CIRCUMFERENCE 1/3 T0,[5],55.0 and 52.8 (2×) and 51.7 and 64.0 and 55.7 (3×) and 51.0 and 47.6 and 49.0 and 52.5 and 56.6 and 58.1 and 55.2 and 47.1 and 47.0 and 48.5 and 52.1 and 50.2 and 52.7 and 49.7 and 60.6 and 48.2 and 59.2
same,LEFT THIGH CIRCUMFERENCE 2/3 T0,[5],49.9 and 51.3 and 49.0 and 58.4 and 52.4 and 46.9 and 46.2 and 47.9 (2×) and 50.4 and 52.9 and 55.9 (2×) and 56.7 and 48.9 and 46.7 and 52.6 and 44.0 and 45.4 (2×) and 52.0 and 51.4 and 48.2 and 44.9 and 54.6
same,LEFT THIGH CIRCUMFERENCE 3/3 T0,[5],41.2 (2×) and 39.7 (2×) and 48.0 and 37.6 (2×) and 36.4 (2×) and 37.7 and 38.4 and 39.8 and 37.8 and 43.1 and 43.2 and 37.4 and 38.7 (2×) and 37.9 and 47.2 and 44.2 and 38.6 and 43.8 and 36.3 and 46.4
same,RIGHT THIGH CIRCUMFERENCE 1/3 T0,[5],55.0 and 53.2 and 52.0 (2×) and 64.7 and 55.7 (2×) and 50.6 and 48.1 and 49.0 and 53.0 and 56.9 and 59.0 and 55.2 and 52.6 and 47.0 (2×) and 48.3 and 52.2 and 54.9 and 50.2 and 50.8 and 60.8 and 48.2 and 56.0
same,RIGHT THIGH CIRCUMFERENCE 2/3 T0,[5],49.9 and 51.3 and 49.0 and 58.4 and 52.5 and 47.2 and 46.5 and 47.9 (2×) and 50.4 and 52.9 and 55.9 and 56.8 and 49.2 and 46.7 and 52.6 and 44.0 and 45.4 (2×) and 52.0 and 51.4 and 48.2 and 45.3 and 55.6 and 54.6
same,RIGHT THIGH CIRCUMFERENCE 3/3 T0,[5],41.2 (2×) and 39.7 and 48.0 and 37.6 (2×) and 36.4 (2×) and 37.7 and 38.4 (2×) and 39.8 and 37.8 and 45.3 and 43.2 and 37.4 and 38.6 and 39.0 and 37.9 and 39.5 and 47.5 and 44.1 and 43.8 and 36.3 and 46.4
same,LEFT THIGH CIRCUMFERENCE 1/3 T15,[6],54.5 and 52.3 (2×) and 51.2 and 63.5 and 55.2 (3×) and 50.5 and 47.1 and 48.5 and 52.0 and 56.1 and 57.6 and 54.7 and 46.6 and 46.5 and 48.0 and 51.6 and 49.7 and 52.2 and 49.2 and 60.5 and 47.7 and 58.7
same,LEFT THIGH CIRCUMFERENCE 2/3 T15,[6],49.4 and 50.8 and 48.5 and 57.9 and 51.9 and 46.4 and 45.7 and 47.4 (2×) and 49.9 and 52.4 and 55.4 (2×) and 56.2 and 48.4 and 46.2 and 52.1 and 43.5 and 44.9 (2×) and 51.5 and 50.9 and 47.7 and 44.4 and 54.1
same,LEFT THIGH CIRCUMFERENCE 3/3 T15,[6],40.7 (2×) and 39.2 (2×) and 47.5 and 37.1 (2×) and 35.9 (2×) and 37.2 and 37.9 and 39.3 and 37.3 and 42.6 and 42.7 and 36.9 and 38.2 (2×) and 37.4 and 46.7 and 43.7 and 38.1 and 43.3 and 35.8 and 45.9
same,RIGHT THIGH CIRCUMFERENCE 1/3 T15,[6],55.9 and 52.8 and 53.2 and 65.3 and 55.3 and 49.4 and 48.4 and 49.8 and 53.3 and 57.6 and 59.2 and 54.3 and 50.5 and 48.1 and 56.3 and 48.0 (2×) and 48.8 and 51.8 and 54.5 and 51.0 and 50.8 and 50.4 and 60.4 and 59.8
same,RIGHT THIGH CIRCUMFERENCE 2/3 T15,[6],48.2 and 49.6 and 47.3 (2×) and 56.7 and 50.7 and 46.2 (2×) and 44.5 and 49.8 and 52.3 and 55.6 and 56.5 and 48.7 and 45.0 and 50.9 and 44.0 and 45.2 and 51.8 and 51.0 and 47.9 and 43.2 and 54.2 and 43.7 and 52.9
same,RIGHT THIGH CIRCUMFERENCE 3/3 T15,[6],40.6 and 40.8 and 37.7 (3×) and 49.2 and 38.5 (2×) and 35.3 and 37.2 and 37.1 and 39.7 and 44.5 and 42.3 and 36.6 and 39.2 and 35.5 and 38.7 and 39.4 and 43.2 and 37.5 and 36.4 and 43.9 and 35.8 and 45.5
same,LEFT THIGH CIRCUMFERENCE 1/3 T30,[7],53.4 and 51.2 (2×) and 50.1 and 62.4 and 54.2 and 49.2 and 46.0 and 47.4 and 50.9 and 55.0 and 56.5 and 53.6 and 45.5 and 54.1 and 45.4 and 46.9 and 50.5 and 54.0 and 49.7 and 52.3 and 48.1 and 59.0 and 46.6 and 57.6
same,LEFT THIGH CIRCUMFERENCE 2/3 T30,[7],48.5 and 49.9 and 47.6 and 57.0 and 51.0 and 45.5 and 44.8 and 46.5 (2×) and 49.0 and 51.5 and 54.5 (2×) and 55.3 and 47.5 and 45.3 and 51.2 and 42.6 and 44.0 (2×) and 50.6 and 50.0 and 46.8 and 43.5 and 53.2
same,LEFT THIGH CIRCUMFERENCE 3/3 T30,[7],39.5 (2×) and 38.0 (2×) and 46.3 and 35.9 (2×) and 34.7 (2×) and 36.0 and 36.7 and 38.1 (2×) and 36.1 and 41.4 and 41.5 and 35.7 and 37.0 (2×) and 36.2 and 45.5 and 43.6 and 42.1 and 34.6 and 44.7
same,RIGHT THIGH CIRCUMFERENCE 1/3 T30,[7],54.5 and 51.4 and 51.8 and 63.9 and 53.9 and 48.0 and 47.0 and 48.4 and 51.9 and 56.2 and 57.8 and 52.9 and 49.3 and 46.7 and 53.6 and 47.1 and 46.5 and 49.9 and 53.0 and 48.6 and 48.5 and 49.0 and 59.0 and 46.4 and 58.4
same,RIGHT THIGH CIRCUMFERENCE 2/3 T30,[7],48.2 and 48.0 and 46.8 and 56.4 and 50.3 and 46.5 and 44.3 and 44.6 (2×) and 49.6 and 51.7 and 55.4 and 56.0 and 48.6 and 45.0 and 50.0 and 44.0 and 50.6 and 51.0 and 47.0 and 47.8 and 43.0 and 53.9 and 44.2 and 51.3
same,RIGHT THIGH CIRCUMFERENCE 3/3 T30,[7],40.5 and 40.3 and 36.6 (2×) and 48.1 and 38.2 and 34.2 and 36.4 (2×) and 38.7 (2×) and 38.4 and 43.4 and 41.0 and 36.2 and 36.8 (2×) and 35.2 and 37.8 and 38.3 and 42.5 and 35.7 and 42.8 and 35.6 and 44.3
same,LEFT THIGH CIRCUMFERENCE 1/3 T60,[8],52.7 and 50.5 (2×) and 49.4 and 61.7 and 53.4 (2×) and 48.7 and 44.9 and 46.7 and 50.0 and 53.7 and 55.8 and 51.7 and 44.8 and 52.9 and 44.7 and 46.2 and 49.8 and 48.5 and 50.4 and 47.4 and 57.9 and 45.9 and 56.9
same,LEFT THIGH CIRCUMFERENCE 2/3 T60,[8],47.6 and 49.0 and 46.7 and 56.1 and 50.1 and 44.6 and 43.9 and 45.6 (2×) and 48.1 and 50.6 and 53.6 (2×) and 54.4 and 46.6 and 44.4 and 50.3 and 41.7 and 43.1 (2×) and 49.7 and 49.1 and 45.9 and 42.6 and 52.3
same,LEFT THIGH CIRCUMFERENCE 3/3 T60,[8],39.0 (2×) and 37.5 (2×) and 45.8 and 35.4 (2×) and 34.2 (2×) and 35.5 and 36.2 and 37.6 and 35.6 and 41.6 (2×) and 41.0 and 35.2 and 36.5 (2×) and 35.7 and 45.0 and 42.0 and 36.4 and 34.1 and 44.2
same,RIGHT THIGH CIRCUMFERENCE 1/3 T60,[8],53.8 and 50.7 and 50.0 and 62.4 and 53.2 and 47.3 and 46.0 and 47.2 and 51.0 and 55.5 and 56.7 and 52.0 and 48.4 and 44.7 and 52.8 and 45.0 and 45.9 and 49.3 and 51.8 and 48.1 and 48.5 and 48.3 and 57.8 and 45.7 and 56.5
same,RIGHT THIGH CIRCUMFERENCE 2/3 T60,[8],46.8 and 48.1 and 46.5 and 56.4 and 49.2 and 43.7 and 44.5 and 44.7 and 47.2 and 49.7 and 53.8 and 56.0 and 46.3 and 43.5 (2×) and 49.4 and 44.3 and 50.2 and 48.3 and 45.9 and 45.0 and 41.7 and 52.7 and 43.2 and 50.8
same,RIGHT THIGH CIRCUMFERENCE 3/3 T60,[8],38.2 (2×) and 39.3 and 36.2 (3×) and 47.7 and 37.0 (2×) and 33.8 and 35.7 and 35.6 and 43.0 and 40.8 and 34.8 and 37.7 and 34.2 and 37.2 and 37.9 and 41.7 and 36.0 and 33.7 and 42.4 and 34.3 and 44.0
